≈ marks a conversion by molar mass, not a printed value.
Experiments:
[1] = Rates of protein fixation (human serum protein); assay type: in vitro ADME; conditions: read-out: Rate of protein fixation (converted)
Excerpt: Rates of protein fixation (human serum protein) of the penicillin derivatives of this invention are illustrated as follows: […]

[2] = tested on: Morganella var. G-2; assay: Bactericidal test (MIC), Morganella var. G-2; assay type: cell-based; conditions: VAR.G2; (9) Morganella var. G-2; read-out: MIC
Excerpt: (§1) Results of bactericidal tests (MIC, r/ml) on the penicillin derivatives of this invention prepared in the above examples are shown in the following table.

[3] = tested on: Pseudomonas aeruginosa 0-37; assay: Bactericidal test (MIC), Pseudomonas aeruginosa 0-37; assay type: cell-based; conditions: 037; (13) Pseudomonas aeruginosa 0-37
Excerpt: as §1

[4] = tested on: Pseudomonas aeruginosa Tid-53; assay: Bactericidal test (MIC), Pseudomonas aeruginosa Tid-53; assay type: cell-based; conditions: TID53; (14) Pseudomonas aeruginosa Tid-53
Excerpt: as §1

[5] = tested on: Staphylococcus aureus 209-p; assay: Bactericidal test (MIC), Staphylococcus aureus 209-p; assay type: cell-based; conditions: (1) Staphylococcus aureus 209-p
Excerpt: as §1

[6] = tested on: Salmonella typhimurium G-20; assay: Bactericidal test (MIC), Salmonella typhimurium G-20; assay type: cell-based; conditions: Salmonella enterica; (4) Salmonella typhimurium G-20
Excerpt: as §1

[7] = tested on: Serratia G-18; assay: Bactericidal test (MIC), Serratia G-18; assay type: cell-based; conditions: G18; (11) Serratia G-18; read-out: MIC
Excerpt: as §1

[8] = tested on: Pseudomonas aeruginosa IFO-3080; assay: Bactericidal test (MIC), Pseudomonas aeruginosa IFO-3080; assay type: cell-based; conditions: IFO3080; (12) Pseudomonas aeruginosa IFO-3080; read-out: MIC
Excerpt: as §1

[9] = tested on: Rettgerella var. Tid-21; assay: Bactericidal test (MIC), Rettgerella var. Tid-21; assay type: cell-based; conditions: (10) Rettgerella var. Tid-21; read-out: MIC
Excerpt: as §1

[10] = Acute toxicity values [(LD50), mouse]; conditions: in vivo
Excerpt: Acute toxicity values [(LD50), mouse] of some penicillin derivatives of this invention are illustrated in the following table.

[11] = tested on: Enterobacter cloacae IF012937; assay: Bactericidal test (MIC), Enterobacter cloacae IF012937; assay type: cell-based; conditions: (8) Enterobacter cloacae IF012937
Excerpt: as §1

[12] = tested on: Staphylococcus aureus 1248; assay: Bactericidal test (MIC), Staphylococcus aureus 1248; assay type: cell-based; conditions: (2) Staphylococcus aureus 1248; read-out: MIC
Excerpt: as §1

[13] = tested on: Bacillus subtilis; assay: Bactericidal test (MIC), Bacillus subtilis; assay type: cell-based; conditions: (3) Bacillus subtilis
Excerpt: as §1

[14] = tested on: Escherichia Coli NIHJ JC-2; assay: Bactericidal test (MIC), Escherichia Coli NIHJ JC-2; assay type: cell-based; conditions: NIHJJC2; (5) Escherichia Coli NIHJ JC-2
Excerpt: as §1

[15] = tested on: Pseudomonas aeruginosa 130; assay: Bactericidal test (MIC), Pseudomonas aeruginosa 130; assay type: cell-based; conditions: (16) Pseudomonas aeruginosa 130
Excerpt: as §1

[16] = tested on: Klebsiella neumoniae ATCC10031; assay: Bactericidal test (MIC), Klebsiella neumoniae ATCC10031; assay type: cell-based; conditions: (6) Klebsiella neumoniae ATCC10031; read-out: MIC
Excerpt: as §1

[17] = tested on: Pseudomonas aeruginosa GN-315; assay: Bactericidal test (MIC), Pseudomonas aeruginosa GN-315; assay type: cell-based; conditions: GN315; (15) Pseudomonas aeruginosa GN-315
Excerpt: as §1

[18] = tested on: Enterobactor cloacae 147; assay: Bactericidal test (MIC), Enterobactor cloacae 147; assay type: cell-based; conditions: (7) Enterobactor cloacae 147
Excerpt: as §1

CC(=O)Oc1ccc2oc(=O)c(C(=O)N[C@@H](C(=O)N[C@@H]3C(=O)N4[C@@H]3SC(C)(C)[C@@H]4C(=O)O)c3ccccc3)cc2c1 [Example 9, D(-)-α-(6-Acetoxycoumarin-3-carbonamido)benzylpenicillin]
fraction unbound [1]: 0.2
MIC [2]: 6.25 µg/mL (≈ 10.8 µM)
MIC [3]: 25 µg/mL (≈ 43.1 µM)
MIC [4]: 6.25 µg/mL (≈ 10.8 µM)
MIC [5]: < 0.4 µg/mL
MIC [6]: < 0.4 µg/mL
MIC [7]: 25 µg/mL (≈ 43.1 µM)
MIC [8]: 0.8 µg/mL (≈ 1.38 µM)
MIC [9]: 3.13 µg/mL (≈ 5.4 µM)
LD50 ([10]; Oral): > 4000 mg/kg
LD50 ([10]; ip, Intraabdominal): 2000 mg/kg
MIC [11]: 25 µg/mL (≈ 43.1 µM)
MIC [12]: 3.13 µg/mL (≈ 5.4 µM)
MIC [13]: < 0.4 µg/mL
MIC [14]: < 0.4 µg/mL
MIC [15]: < 0.4 µg/mL
MIC [16]: < 0.4 µg/mL
MIC [17]: 6.25 µg/mL (≈ 10.8 µM)
MIC [18]: 3.13 µg/mL (≈ 5.4 µM)

COc1cccc2cc(C(=O)N[C@@H](C(=O)N[C@@H]3C(=O)N4[C@@H]3SC(C)(C)[C@@H]4C(=O)O)c3ccccc3)c(=O)oc12 [Example 6, D(-)-α-(8-Methoxycoumarin-3-carbonamido)benzylpenicillin]
fraction unbound [1]: 0.42
MIC [2]: 0.8 µg/mL (≈ 1.45 µM)
MIC [3]: 12.5 µg/mL (≈ 22.7 µM)
MIC [4]: 6.25 µg/mL (≈ 11.3 µM)
MIC [5]: < 0.4 µg/mL
MIC [6]: < 0.4 µg/mL
MIC [7]: 6.25 µg/mL (≈ 11.3 µM)
MIC [8]: 0.8 µg/mL (≈ 1.45 µM)
MIC [9]: 3.13 µg/mL (≈ 5.67 µM)
LD50 ([10]; Oral): > 4000 mg/kg
LD50 ([10]; ip, Intraabdominal): 2000 mg/kg
MIC [11]: 6.25 µg/mL (≈ 11.3 µM)
MIC [12]: 0.8 µg/mL (≈ 1.45 µM)
MIC [13]: < 0.4 µg/mL
MIC [14]: < 0.4 µg/mL
MIC [15]: 1.56 µg/mL (≈ 2.83 µM)
MIC [16]: 0.8 µg/mL (≈ 1.45 µM)
MIC [17]: 3.13 µg/mL (≈ 5.67 µM)
MIC [18]: 3.13 µg/mL (≈ 5.67 µM)
